Assay results from patent publication US20260226073A1 (AURIGENE ONCOLOGY LIMITED, priority 2023, published 2026).
pEC50, pIC50: −log10 of the molar value.

Columns and labels:
[1] = test system: NFAT signaling pathway in Jurkat NFAT reporter cells; experiment: Jurkat NFAT reporter assay; format: cell-based; settings: Homo sapiens, 30 min with compound, then soluble anti-human CD3/CD28 antibody for 6 hours, luciferase readout, read-out: EC50 (Group)
In short: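 Results are expressed as fold change relative to stimulated, inhibitor-free cells. Stimulation was 6 h with soluble anti-human CD3/CD28 antibody after a 30-min exposure of 1×10^5 NFAT-RE luciferase Jurkat reporter cells per well to the Cbl-b inhibitor; signal read by Bio-Glo bioluminescence.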

[2] = molecular target: T1, human recombinant CBL-b (human Biotin CBL-b recombinant protein a.a. 39-426) (Homo sapiens, UniProt Q13191); experiment: Biochemical assay for CBL-b inhibition (ligand displacement TR-FRET); format: binding; settings: 50 nM CBL-b, 0.3 μM Bodipy FL-Probe, read-out: IC50 (CBL-b inhibition, group)
T1 construct: human Biotin CBL-b recombinant protein a.a; 39-426; Biotin (biotinylated); made in house
T1 sequence (Q13191 39-426): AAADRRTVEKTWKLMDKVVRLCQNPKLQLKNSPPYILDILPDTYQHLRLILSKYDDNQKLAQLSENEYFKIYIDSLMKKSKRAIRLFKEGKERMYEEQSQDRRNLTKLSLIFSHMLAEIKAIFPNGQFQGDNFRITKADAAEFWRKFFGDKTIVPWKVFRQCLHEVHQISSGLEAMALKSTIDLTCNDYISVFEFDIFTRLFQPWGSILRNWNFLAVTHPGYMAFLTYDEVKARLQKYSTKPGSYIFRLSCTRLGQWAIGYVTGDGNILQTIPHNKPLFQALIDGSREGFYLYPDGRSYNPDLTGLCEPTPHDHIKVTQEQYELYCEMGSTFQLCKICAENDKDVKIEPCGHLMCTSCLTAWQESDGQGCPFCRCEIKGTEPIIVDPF
In short: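 Ligand-displacement TR-FRET: 0.3 μM Bodipy FL probe competes with compound for 50 nM biotin-CBL-b (aa 39-426) after a 60 min RT compound pre-incubation; terbium-streptavidin detection, 60 min each step. Dose-response sigmoidal fitting gave IC50 and % maximum inhibition.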

SMILES	pEC50 [1]	pIC50 [2]
Cn1cnnc1CC1(c2ccc3c(c2)C(=O)N(c2cc(CN4CC5(CCC5)C4)cc(C(F)(F)F)n2)C3)COC1 [Compound 51, 2-(4-((2-Azaspiro[3.3]heptan-2-yl)methyl)-6-(trifluoromethyl)pyridin-2-yl)-6-(3-((4-methyl-4H-1,2,4-triazol-3-yl)methyl)oxetan-3-yl)isoindolin-1-one]	5.00 to 6.00	5.30 to 6.52
C[C@H]1CCCN(Cc2cc(Cl)nc(N3Cc4ccc([C@]5(c6nncn6C)C[C@@H](C)C5)cc4C3=O)c2)C1 [Compound 58, 2-(6-Chloro-4-(((S)-3-methylpiperidin-1-yl)methyl)pyridin-2-yl)-6-((1s,3R)-3-methyl-1-(4-methyl-4H-1,2,4-triazol-3-yl)cyclobutyl)isoindolin-1-one]	5.00 to 6.00	5.30 to 6.52
Cn1cnnc1CC1(c2ccc3c(c2)C(=O)N(c2cc(CN4CC[C@H](F)C4)cc(C(F)(F)F)n2)C3)COC1 [Compound 61, (S)-2-(4-((3-Fluoropyrrolidin-1-yl)methyl)-6-(trifluoromethyl)pyridin-2-yl)-6-(3-((4-methyl-4H-1,2,4-triazol-3-yl)methyl)oxetan-3-yl)isoindolin-1-one]	5.00 to 6.00	5.30 to 6.52
C[C@H]1CCN(Cc2cc(Cl)nc(N3Cc4ccc(C5(Cc6nncn6C)COC5)cc4C3=O)c2)C1 [Compound 67, (S)-2-(6-Chloro-4-((3-methylpyrrolidin-1-yl)methyl)pyridin-2-yl)-6-(3-((4-methyl-4H-1,2,4-triazol-3-yl)methyl)oxetan-3-yl)isoindolin-1-one]	6.00 to 6.52	6.52 to 7.10
C[C@@H]1CCN(Cc2cc(Cl)nc(N3Cc4ccc(C5(Cc6nncn6C)COC5)cc4C3=O)c2)C1 [Compound 68, (R)-2-(6-Chloro-4-((3-methylpyrrolidin-1-yl)methyl)pyridin-2-yl)-6-(3-((4-methyl-4H-1,2,4-triazol-3-yl)methyl)oxetan-3-yl)isoindolin-1-one]	6.00 to 6.52	6.52 to 7.10
Cn1cnnc1CC1(c2ccc3c(c2)C(=O)N(c2cc(CN4CC5CC5C4)cc(C(F)(F)F)n2)C3)COC1 (stereo not drawn) [Compound 71, 2-(4-((3-Azabicyclo[3.1.0]hexan-3-yl)methyl)-6-(trifluoromethyl)pyridin-2-yl)-6-(3-((4-methyl-4H-1,2,4-triazol-3-yl)methyl)oxetan-3-yl)isoindolin-1-one]	5.00 to 6.00	5.30 to 6.52
C[C@H]1CCCN(Cc2cc(C3CC3)nc(N3Cc4ccc(C5(Cc6nncn6C)COC5)cc4C3=O)c2)C1 [Compound 73, (S)-2-(6-Cyclopropyl-4-((3-methylpiperidin-1-yl)methyl)pyridin-2-yl)-6-(3-((4-methyl-4H-1,2,4-triazol-3-yl)methyl)oxetan-3-yl)isoindolin-1-one]	5.00 to 6.00	6.52 to 7.10
Cn1cnnc1CC1(c2ccc3c(c2)C(=O)N(c2cc(CNC4CC(F)(F)C4)cc(C(F)(F)F)n2)C3)COC1 [Compound 74, 2-(4-(((3,3-Difluorocyclobutyl)amino)methyl)-6-(trifluoromethyl)pyridin-2-yl)-6-(3-((4-methyl-4H-1,2,4-triazol-3-yl)methyl)oxetan-3-yl)isoindolin-1-one]	5.00 to 6.00	6.52 to 7.10
CC(Cc1nncn1C)c1ccc2c(c1)C(=O)N(c1cc(CN3C[C@H](C)C[C@H](C)C3)cc(Cl)n1)C2 (stereo partly drawn) [Compound 84, 2-(6-Chloro-4-(((3S,5R)-3,5-dimethylpiperidin-1-yl)methyl)pyridin-2-yl)-6-(1-(4-methyl-4H-1,2,4-triazol-3-yl)propan-2-yl)isoindolin-1-one]	6.00 to 6.52	6.52 to 7.10
Cn1cnnc1CC1(c2ccc3c(c2)C(=O)N(c2cc(CNC4(C)CCC4)cc(C(F)(F)F)n2)C3)COC1 [Compound 88, 6-(3-((4-Methyl-4H-1,2,4-triazol-3-yl)methyl)oxetan-3-yl)-2-(4-(((1-methyl-cyclobutyl)amino)methyl)-6-(trifluoromethyl)pyridin-2-yl)isoindolin-1-one]	6.00 to 6.52	5.30 to 6.52
Cn1cnnc1CC1(c2ccc3c(c2)C(=O)N(c2cc(CN4CCCc5c4cnn5C)cc(C(F)(F)F)n2)C3)COC1 [Compound 92, 2-(4-((1-Methyl-1,5,6,7-tetrahydro-4H-pyrazolo[4,3-b]pyridin-4-yl)methyl)-6-(trifluoromethyl)pyridin-2-yl)-6-(3-((4-methyl-4H-1,2,4-triazol-3-yl)methyl)oxetan-3-yl)isoindolin-1-one]	5.00 to 6.00	5.30 to 6.52
C[C@H]1CCCN(Cc2cc(N3Cc4ccc(C5(Cc6nncn6C)COC5)cc4C3=O)cc3occc23)C1 [Compound 94, (S)-6-(3-((4-Methyl-4H-1,2,4-triazol-3-yl)methyl)oxetan-3-yl)-2-(4-((3-methyl-piperidin-1-yl)methyl)benzofuran-6-yl)isoindolin-1-one]	6.00 to 6.52	> 7.10

The next lines start with the values.

pEC50 [1]	pIC50 [2]	SMILES
6.00 to 6.52	6.52 to 7.10	Cn1cnnc1CC1(c2ccc3c(c2)C(=O)N(c2cc(CN4CCC(F)(F)CC4)cc(C(F)(F)F)n2)C3)COC1 [Compound 48, 2-(4-((4,4-Difluoropiperidin-1-yl)methyl)-6-(trifluoromethyl)pyridin-2-yl)-6-(3-((4-methyl-4H-1,2,4-triazol-3-yl)methyl)oxetan-3-yl)isoindolin-1-one]
6.00 to 6.52	6.52 to 7.10	C[C@H]1CCCN(Cc2cc(CC3CC3)cc(N3Cc4ccc(C5(Cc6nncn6C)COC5)cc4C3=O)c2)C1 [Compound 49, (S)-2-(3-(Cyclopropylmethyl)-5-((3-methylpiperidin-1-yl)methyl)phenyl)-6-(3-((4-methyl-4H-1,2,4-triazol-3-yl)methyl)oxetan-3-yl)isoindolin-1-one]
> 6.52	> 7.10	C[C@H]1C[C@H](C)CN(Cc2cc(Cl)nc(N3Cc4ccc(C5(Cc6nncn6C)COC5)cc4C3=O)c2)C1 [Compound 60, 2-(6-Chloro-4-(((3S,5S)-3,5-dimethylpiperidin-1-yl)methyl)pyridin-2-yl)-6-(3-((4-methyl-4H-1,2,4-triazol-3-yl)methyl)oxetan-3-yl)isoindolin-1-one]
6.00 to 6.52	6.52 to 7.10	Cn1cnnc1CC1(c2ccc3c(c2)C(=O)N(c2cc(CN4CCC5(CC5)C4)cc(Cl)n2)C3)COC1 [Compound 62, 2-(4-((5-Azaspiro[2.4]heptan-5-yl)methyl)-6-chloropyridin-2-yl)-6-(3-((4-methyl-4H-1,2,4-triazol-3-yl)methyl)oxetan-3-yl)isoindolin-1-one]
> 6.52	> 7.10	Cn1cnnc1CC1(c2ccc3c(c2)C(=O)N(c2cc(CN4CCCCC4)cc(Cl)n2)C3)COC1 [Compound 64, 2-(6-Chloro-4-(piperidin-1-ylmethyl)pyridin-2-yl)-6-(3-((4-methyl-4H-1,2,4-triazol-3-yl)methyl)oxetan-3-yl)isoindolin-1-one]
6.00 to 6.52	6.52 to 7.10	C[C@@H]1C[C@H](C)CN(Cc2cc(N3Cc4ccc(C5(Cc6nncn6C)COC5)cc4C3=O)cc(C(F)(F)F)c2)C1 [Compound 65, 2-(3-(((3S,5R)-3,5-Dimethylpiperidin-1-yl)methyl)-5-(trifluoromethyl)phenyl)-6-(3-((4-methyl-4H-1,2,4-triazol-3-yl)methyl)oxetan-3-yl)isoindolin-1-one]
> 6.52	> 7.10	Cn1cnnc1CC1(c2ccc3c(c2)C(=O)N(c2cc(CNCCC(F)(F)F)cc(Cl)n2)C3)COC1 [Compound 66, 2-(6-Chloro-4-(((3,3,3-trifluoropropyl)amino)methyl)pyridin-2-yl)-6-(3-((4-methyl-4H-1,2,4-triazol-3-yl)methyl)oxetan-3-yl)isoindolin-1-one]
> 6.52	> 7.10	C[C@@H]1C[C@H](C)CN(Cc2cc(N3Cc4ccc(C5(Cc6nncn6C)CCC5)cc4C3=O)nc(C(F)(F)F)c2)C1 [Compound 82, 2-(4-(((3S,5R)-3,5-Dimethylpiperidin-1-yl)methyl)-6-(trifluoromethyl)pyridin-2-yl)-6-(1-((4-methyl-4H-1,2,4-triazol-3-yl)methyl)cyclobutyl)isoindolin-1-one]
> 6.52	> 7.10	CC(Cc1nncn1C)c1ccc2c(c1)C(=O)N(c1cc(CN3CCC[C@H](C)C3)cc(Cl)n1)C2 (stereo partly drawn) [Compound 83, 2-(6-Chloro-4-(((S)-3-methylpiperidin-1-yl)methyl)pyridin-2-yl)-6-(1-(4-methyl-4H-1,2,4-triazol-3-yl)propan-2-yl)isoindolin-1-one]
> 6.52	> 7.10	C[C@H]1CCCN(Cc2cc(Cl)nc(N3Cc4ccc(C5(Cc6nncn6C)CC(C#N)C5)cc4C3=O)c2)C1 (stereo partly drawn) [Compound 85]
> 6.52	> 7.10	C[C@H]1CCCN(Cc2cc(Cl)nc(N3Cc4ccc(C5(Cc6nncn6C)CCC5)cc4C3=O)c2)C1 [Compound 89, (S)-2-(6-Chloro-4-((3-methylpiperidin-1-yl)methyl)pyridin-2-yl)-6-(1-((4-methyl-4H-1,2,4-triazol-3-yl)methyl)cyclobutyl)isoindolin-1-one]
> 6.52	> 7.10	Cc1cc(CNCC2CC2)cc(N2Cc3ccc(-c4ccc(Cl)cc4-c4nncn4C)cc3C2=O)n1 [Compound 101, 6-(4-Chloro-2-(4-methyl-4H-1,2,4-triazol-3-yl)phenyl)-2-(4-(((cyclopropylmethyl)amino)methyl)-6-methylpyridin-2-yl)isoindolin-1-one]
